Measurements published in patent US9907309B2 (priority 2010, dated 2018).
Read-outs that look alike come from different tables or passages of the source.

Legend:
Details in all cases: solo, growth at 405 nm 7 days after inoculation
Phytophtora infestans = type: cell-based
Septoria tritici = tested on: Septoria tritici
Alternaria solani = tested on: Alternaria solani

C[C@]1(COC(=O)C2CC2)[C@@H]2C[C@H](O)[C@@]3(C)Oc4cc(-c5cccnc5)oc(=O)c4[C@H](O)[C@@H]3[C@@]2(C)CC[C@@H]1OC(=O)C1CC1 [Compound I, [(3S,4R,4aR,6S,6aS,12R,12aS,12bS)-3-(cyclopropanecarbonyloxy)-6,12-dihydroxy-4,6a,12b-trimethyl-11-oxo-9-(pyridin-3-yl)-1,2,3,4,4a,5,6,6a,12a,12b-decahydro-11H,12H-benzo[f]pyrano[4,3-b]chromen-4-yl]methyl cyclopropanecarboxylate]
Observed efficacy (Phytophtora infestans; 4 ppm): 6% | Observed efficacy (Septoria tritici; 4 ppm): 0% | Observed efficacy (Septoria tritici; 63 ppm): 0% | Observed efficacy (Alternaria solani; 1 ppm): 0%

Cn1cc(C(=O)Nc2ccccc2-c2cc(F)c(F)c(F)c2)c(C(F)F)n1 [Fluxapyroxad, fluxapyroxad]
Observed efficacy (Septoria tritici; 0.063 ppm): 54%

COC(=O)N(OC)c1ccccc1COc1ccn(-c2ccc(Cl)cc2)n1 [Pyraclostrobin, pyraclostrobin]
Observed efficacy (Phytophtora infestans; 0.063 ppm): 28% | Observed efficacy (Septoria tritici; 0.004 ppm): 63% | Observed efficacy (Alternaria solani; 0.001 ppm): 16%
